Results from patent publication US20150353626A1, “APOLIPOPROTEIN A-I DERIVED PEPTIDES FOR TREATMENT OF HYPERGLYCAEMIA” (priority 2013, published 2015).

Legend:
[1] = tested on: AMPK; assay: Western blot for phosphorylated AMPK in L6 myotube lysates; assay type: cell-based; conditions: L6 myotubes, 60 minutes; 2, 10 or 20 μmol/l 190-243 peptide; FIG. 8c
Procedure: (§1) Prior to stimulation or treatment cultured myoblast cells were serum starved for 4 hours in serum-free α-MEM and all subsequent treatments, including insulin or phenformin as positive controls (Sigma), were performed in serum free a-MEM. After treatments, cells were washed with ice cold PBS buffer and lysed on ice using a non-denaturing lysis buffer (1% Triton X-100, 50 mmol/l Tris, 150 mmol/l NaCl, pH 8.0) containing protease and phosphatase inhibitors (Roche). Lysates were centrifuged at 16,000×g, 20 minutes at 4° C. and BCA protein assay (Pierce) was performed on supernatants. Equal protein amounts were separated by SDS-PAGE and transferred to nitrocellulose membranes. pAMPK, AMPK, pACC, pAkt, Akt and tubulin were used for immunodetection with IRDye 800CW and 680RD secondary antibodies (LI-COR). Blots were imaged using the Odyssey Fc system and quantified using Image studio v2.0 software.
To dissect the effect of discoidal rHDL on a non-insulin dependent signaling pathway, we conducted western blotting using lysates from L6 myotubes incubated with rHDL. […] Phenformin was used as a positive control, inducing a 1.98±0.33-fold (p=≦0.05) and 2.7±0.74-fold (p=≦0.05) elevation of phosphorylated AMPK and ACC, respectively, at a concentration of 0.4 mmol/l. […] Representative immunoblots of those quantified for FIGS. 3a, c and f are given in FIGS. 3b, d and e, respectively. […]

[2] = tested on: insulin resistant C57Bl/6 mice; assay: Glucose tolerance test in high-fat diet fed (HFD) mice; assay type: in vivo, mouse
Procedure: Male C57BL/6 mice (Taconic) were used at 9-12 weeks of age. Animals were on a 12 hour light cycle with non-restricted food and water. The HFD animals were fed an HFD (D12492, 60% fat content; Research Diets) for 2 weeks. All animal procedures were approved by the Malmo/Lund Committee for Animal Experiment Ethics, Lund, Sweden. HFD mice fasted overnight (12 hours) were injected intra peritoneal (i.p.) with apoA-I peptides as listed above ([…] in PBS pH 7.4 for the 54-mer fragment and 6-7 mg/kg for other fragments in PBS, pH 7.4; control animals received NaCl) and this was followed by collection of serum samples at the indicated times. Glucose (50 mg/mouse) was injected i.p. 3 hours after treatments, followed by collection of serum samples at the indicated times. Blood glucose levels were measured (OnetouchUltra2; Lifescan), and insulin levels were assayed in serum using ELISA (Mercodia).

[3] = Circular dichroism spectroscopy, alpha-helical content; assay type: physicochemical; conditions: 0.2 mg/ml in PBS pH 7.4, 25° C.
Procedure: CD measurements were performed on a Jasco J-810 spectropolarimeter equipped with a Jasco CDF-4265 Peltier set to 25° C. ApoA-I (full-length and the 190-234 polypeptide fragment) was diluted to 0.2 mg/ml in PBS (final concentration was 25 mmol/l phosphate, 25 mmol/l NaCl, pH 7.4), placed in a 0.1 mm quartz cuvette and, after extensive purging with nitrogen, scanned in the region 200 to 260 nm (scan speed was 20 nm/min). Averages of five scans were baseline-subtracted (PBS; 25 mmol/l phosphate, 25 mmol/l NaCl) and the alpha-helical content was calculated from the molar ellipticity at 222 nm as previously described (Petrlova et al. (2012) J Lipid Res 53: 390-398).

[4] = tested on: Akt; assay: Western blot for phosphorylated Akt in L6 myotube lysates; assay type: cell-based; conditions: L6 myotubes, 60 minutes
Procedure: as §1
To dissect the effect of discoidal rHDL on a non-insulin dependent signaling pathway, we conducted western blotting using lysates from L6 myotubes incubated with rHDL. […] Phenformin was used as a positive control, inducing a 1.98±0.33-fold (p=≦0.05) and 2.7±0.74-fold (p=≦0.05) elevation of phosphorylated AMPK and ACC, respectively, at a concentration of 0.4 mmol/l. […] For clarity 1 nmol/l insulin (n=2) and 100 nmol/l insulin (n=3) (51±12.5-fold; p=≦0.01) was plotted in FIG. 3e. Representative immunoblots of those quantified for FIGS. 3a, c and f are given in FIGS. 3b, d and e, respectively.
The effect of the peptide fragment 190-243 of human Apo A-I (SEQ ID NO: 1) on a non-insulin dependent signaling pathway, was tested using lysates from L6 myotubes as described above for rHDL. Myotubes were serum starved for 4 hours then treated for 60 minutes with 2, 10 or 20 μmol/l of 190-243 peptide, 1 mmol/l phenformin, 100 nmol/l insulin, or control (C) followed by western blot analysis for phosphorylated AMPK (AMP-activated protein kinase) or phosphorylated Akt. Tubulin was used as loading control. Blots shown are representative of three independent experiments.

[5] = 7 mg/kg i.p., 120 minutes of the test

190-243 polypeptide fragment: polypeptide fragment consisting of amino acids 190-243 of the full-length human apoA-I protein, C-terminal domain, 54-mer, recombinant (AEYHAKATEHLSTLSEKAKPALEDLRQGLLPVLESFKVSFLSALEEYTKKLNTQ; listed as Homo Sapiens)
levels of phosphorylated AMPK (in words) [1]: increased levels of phosphorylated AMPK
increase of glucose-stimulated insulin secretion (AUC) versus control [2, 5]: about 60%
reduction of total glucose (AUC) versus control [2, 5]: about 40%
insulin secretion in glucose tolerance test (in words) ([2]; single i.p. injection 7 mg/kg, glucose load 3 hours later, FIG. 10c,d): significantly improved
helical content from molar ellipticity at 222 nm [3]: 28%
Akt phosphorylation (in words) ([4]; 2, 10 or 20 μmol/l 190-243 peptide, FIG. 8c): unaffected

insulin
Akt phosphorylation ([4]; insulin 100 nmol/l): 51±12.5 fold
Akt phosphorylation ([4]; rHDL 700 μg/ml apoA-I, insulin 1 nmol/l, ± S.D.): 2.06±0.47 fold
